Measured values: paper PMC8991960, “A Bivalent Activatable Fluorescent Probe for Screening and Intravital Imaging of Chemotherapy‐Induced Cancer Cell Death” (Angewandte Chemie (International Ed. in English), 2021)

B1: Annexin V‐AF647: a 36 kDa protein marker of PtdSer in the presence of Ca2+ ions (protein, UniProt P08758 2-320, looked up)
Annexin A5: AQVLRGTVTDFPGFDERADAETLRKAMKGLGTDEESILTLLTSRSNAQRQEISAAFKTLFGRDLLDDLKSELTGKFEKLIVALMKPSRLYDAYELKHALKGAGTNEKVLTEIIASRTPEELRAIKQVYEEEYGSSLEDDVVGDTSGYYQRMLVVLLQANRDPDAGIDEAQVEQDAQALFQAGELKWGTDEEKFITIFGTRSVSHLRKVFDKYMTISGFQIEETIDRETSGNLEQLLLAVVKSIRSIPAYLAETLYYAMKGAGTDDHTLIRVMVSRSEIDLFNIRKEFRKNFATSLYSMIKGDTSGDYKKALLLLCGEDD
modifications: Alexa Fluor 647 label
notes: a 36 kDa protein marker of PtdSer in the presence of Ca2+ ions

Assays:
[1] = test system: MDA-MB-231 cells; assay: Dose-dependency study with Apotracker Red; format: cell-based, human; conditions: 1 to 100 µM, 48 h, Apotracker Red 150 nM
Description: (§1) First, all drugs were tested in the 8 different cell lines to determine the percentages of Apotracker Red‐stained apoptotic cells compared to no treatment (Figure 3 c; Figure S8). […] All 5 drugs were tested at multiple concentrations (from 1 to 100 μM) and with incubation times up to 48 h to examine whether drugs could block cell proliferation at late stages (Figures S9–S13).
Edinburgh. Human peripheral blood neutrophils were isolated as previously described.[3] Briefly, whole blood was drawn into tubes containing anti -coagulant 3.6% sodium citrate (final concentration: 0.4% (w/v)) and centrifuged at 350 g for 20 min at r.t. with lowest acceleration and no brake. Platelet-rich plasma was rem oved, and leukocytes separated from erythrocytes by 0.6% dextran sedimentation in saline for 30 min at r.t. The upper layer was further fractionated using an isotonic discontinuous Percoll density gradient. Neutrophils were harvested from the 63% and 72.9% interface and cultured in Iscove’s Modified Dulbecco’s Medium (IMDM, Gibco) in 5% h um an A B se rum fo r 1 8 h at 37°C, 5% CO2 to in du ce spontaneous […]
(§2) Cell culture. MCF-7, A549, LnCap, MDA-MB-231, Jurkat T cells and PC3 cells were obtained from American Type Culture Collection (ATCC). HT29 cells were purchased from Merck (S i g m a Aldrich, UK). Mouse Mammary Tumour Virus –Polyoma Middle T antigen (MMTV -PyMT) cells were provided by the lab of Mikala Egeblad (CSHL, US). MMTV-PyMT, MCF-7, LnCap, MDA-MB-231 and Jurkat T cells were cultured in Roswell Park Memorial Institute (RPMI) 1640 Medium supplemented with 10% fetal bovine serum (FBS) , 100 U mL-1 penicillin and 0.1 mg mL-1 streptomycin. A549 and PC3 cells were cultured in Dublecco’s modified Eagle’s medium (DMEM) supplemented with 10% fetal bovine serum (FBS), 100 U mL-1 penicillin and 0.1 mg […]
(§3) Flow cytometry drug screen.

[2] = test system: 8 cancer cell lines; assay: Classification of drugs by Apotracker Red (apoptosis) and CellTrace Violet (proliferation) staining; format: cell-based; conditions: 24 h treatment; for Drug group by Apotracker Red (apoptosis) and CV (proliferation) staining: 8 cell lines, single-dose screen; for Effect on cell proliferation (CellTrace Violet): CellTrace Violet 1 µM, Figure S8
Description: To corroborate the versatility of Apotracker Red, we built a screening platform including a total of 8 cancer cell lines of variable origin and pathogenesis: breast (MCF7, MDA‐MB231 and MMTV‐PyMT (mouse mammary tumour virus‐polyoma middle tumour‐antigen)[23]), lung (A549), prostate (PC3 and LnCap), blood cells (Jurkat) and colon (HT29). All cell lines were cultured under standard conditions and seeded with the fluorescent proliferation marker CellTrace^TM Violet (CV) in 96‐well plates (10–20×10^3 cells/well) for high‐throughput flow cytometry. After drug treatment (i.e., drug addition plus 24 h incubation), Apotracker Red was incubated for 10 min and fluorescence readings were directly acquired without any additional processing steps (Figure 3 a). […] Using this platform, we tested a collection of FDA‐approved drugs in all cancer cell lines and compared their ability to induce apoptosis using Apotracker Red as the reporter. Specifically, we included DNA alkylation agents (e.g., cyclophosphamide, cisplatin, 5‐fluorouracil, gemcitabine, temozolomide), proteasomal and mitotic inhibitors (e.g., bortezomib, docetaxel, paclitaxel) and antagonists of specific proteins (e.g., dexamethasone, tamoxifen; Figure 3 b).
as §1
Figure S8. Heatmap of relative inhibition of cell proliferation (as indicated by staining of CellTraceTM Violet) after treatment of cancer cell lines with different drugs. Data presented as an average of 3 independent experiments. Cells were stained on day 0 with CellTraceTM Violet (1 µM) and mean fluorescence intensities were determined on the 5L LSR after 24 h of treatment with the different drugs.
(1 picture or pasted object on this page, not shown here) […]
as §2, §3

[3] = test system: breast cancer cells (MMTV-PyMT, MDA-MB231, MCF7); assay: Dose-dependency study with Apotracker Red and CellTrace Violet; format: cell-based, mouse and human; conditions: 1 to 100 µM, 48 h, Apotracker Red 150 nM; 3 independent experiments
Description: as §1, with “S8). […] From this screen, we decided to select 5 drugs with potent pro‐apoptotic response in breast cancer, the most diagnosed cancer worldwide.[25] […] From group 2, we selected cyclophosphamide, tamoxifen, and 5‐fluorouracil as pro‐apoptotic molecules.” for “S8).”
Figure 4 Apotracker Red detects dose‐dependent chemotherapeutic‐induced apoptosis in mouse and human breast cancer cell lines. Cells were plated with 1 μM CV, treated with increasing concentrations (0, 1, 3, 10, 30 and 100 μM) of selected drugs for 48 h, and stained with Apotracker Red (150 nM) before data acquisition. Drugs: tamoxifen (beige), cisplatin (black), 5‐fluorouracil (green), gemcitabine (pink) and cyclophosphamide (red). Data presented as mean±SEM of 3 independent experiments.
Figure S9. Flow cytometry analysis of cisplatin in different breast cancer cell lines.
Representative flow cytometric plots (from three independent experiments) of MMTV-PyMT cells (a), MDA-MB231 cells (b) and MCF7 cells (c) after treatment with increasing concentrations of cisplatin for 48 h. Cells were stained on day 0 with CellTraceTM Violet (1 µ M) and with Apotracker Red (150 nM) before data acquisition.
(1 picture or pasted object on this page, not shown here)
Edinburgh. Human peripheral blood neutrophils were isolated as previously described.[3] […]
were centrifuged (300 g, 5 min, r.t.), washed once with PBS before addition of 0.05% Trypsin, 0.02% ethylenediaminetetraacetic acid (EDTA) in Hank’s balanced salt solution (HBSS) and incubation at 37°C for 5 min. […] Histograms and mean fluorescence intensities of […]

[4] = test system: apoptotic cells (primary human neutrophils, Jurkat T cells); assay: Divalent cation-independent staining of apoptotic cells; format: cell-based; conditions: 2.5 mM EDTA; Apotracker Red 150 nM, Annexin V-AF647 25 nM

Row | Molecule | Apotracker Red staining in MDA-MB-231 cells, dose-dependency study [1] | Drug group by Apotracker Red (apoptosis) and CV (proliferation) staining [2] | also measured
1 | O=c1[nH]cc(F)c(=O)[nH]1 [5-fluorouracil] | weaker Apotracker Red‐staining | induced apoptosis with little reduction of cell proliferation | –
2 | CC(C)C[C@H](NC(=O)[C@H](Cc1ccccc1)NC(=O)c1cnccn1)B(O)O [bortezomib] | – | induced apoptosis with little reduction of cell proliferation | Effect on cell proliferation (CellTrace Violet) [2]: very minor effects on cell proliferation
3 | O=P1(N(CCCl)CCCl)NCCCO1 (stereo not drawn) [cyclophosphamide] | weaker Apotracker Red‐staining | – | –
4 | C[C@@H]1C[C@H]2[C@@H]3CCC4=CC(=O)C=C[C@]4(C)[C@@]3(F)[C@@H](O)C[C@]2(C)[C@@]1(O)C(=O)CO [dexamethasone] | – | had no impact on proliferation or apoptosis | –
5 | CC(=O)O[C@@]12CO[C@@H]1C[C@H](O)[C@@]1(C)C(=O)[C@H](O)C3=C(C)[C@@H](OC(=O)[C@H](O)[C@@H](NC(=O)OC(C)(C)C)c4ccccc4)C[C@@](O)([C@@H](OC(=O)c4ccccc4)[C@H]21)C3(C)C [docetaxel] | – | inhibited cell proliferation but showed little or no induction of apoptosis | –
6 | Nc1ccn([C@@H]2O[C@H](CO)[C@@H](O)C2(F)F)c(=O)n1 [gemcitabine] | weaker Apotracker Red‐staining | induced apoptosis and decreased cell proliferation | –
7 | CC(=O)O[C@H]1C(=O)[C@@]2(C)[C@H]([C@H](OC(=O)c3ccccc3)[C@]3(O)C[C@H](OC(=O)[C@H](O)[C@@H](NC(=O)c4ccccc4)c4ccccc4)C(C)=C1C3(C)C)[C@]1(OC(C)=O)CO[C@@H]1C[C@@H]2O [paclitaxel] | – | induced apoptosis with little reduction of cell proliferation | Effect on cell proliferation (CellTrace Violet) [2]: very minor effects on cell proliferation
8 | CC/C(=C(\c1ccccc1)c1ccc(OCCN(C)C)cc1)c1ccccc1 [tamoxifen] | – | induced apoptosis with little reduction of cell proliferation | Percentages of Apotracker Red staining, dose-dependency study [3]: highest percentages of Apotracker Red staining across all breast cancer cells
9 | Cn1nnc2c(C(N)=O)ncn2c1=O [temozolomide] | – | inhibited cell proliferation but showed little or no induction of apoptosis | –
10 | B1 | – | – | Staining of apoptotic cells after chelation of divalent cations [4]: failed to bind
